Source: patent US7138361B2, “Herbicidal heterocycles” (E. I. du Pont de Nemours and Company, priority 2000, dated 2006)

What was measured:
Assay type in all cases: in vivo
[1] = tested on: bermudagrass (Cynodon dactylon); experiment: Test C preemergence
In short: (§1)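 Response scores (0 no effect to 100 complete control) came from visual comparison with untreated controls 12 to 14 days after treatment. Preemergence application was made to seeded soil; postemergence, to plants at the 1- to 4-leaf stage.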

kochia (Kochia scoparia) = experiment: Test C preemergence
In short: as §1

Sunflower [2] = experiment: Test C preemergence; details: Rate 125 g/ha; scale 0 to 100, 0 no effect, 100 complete control
[3] = tested on: goosegrass (Eleusine indica); experiment: Test C preemergence
In short: as §1

[4] = tested on: crabgrass (Digitaria sanguinalis); experiment: Test C preemergence
In short: as §1

[5] = tested on: cocklebur (Xanthium strumarium); experiment: Test C preemergence
In short: as §1

soybean (Glycine max) = experiment: Test C preemergence
In short: as §1

[6] = tested on: velvetleaf (Abutilon theophrasti); experiment: Test C preemergence
In short: as §1

Sunflower [7] = experiment: Test C preemergence; details: Rate 250 g/ha, scale 0 to 100, 0 no effect, 100 complete control
[8] = tested on: blackgrass (Alopecurus myosuroides); experiment: Test B postemergence
In short: (§2)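 Visual injury scores, 0 = no effect to 100 = complete control, assigned against controls after 13 to 15 days in the greenhouse. Compounds formulated in non-phytotoxic solvent plus surfactant and applied to soil after planting (pre) or onto foliage of 1- to 4-leaf plants (post).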

wild oat (Avena fatua) = experiment: Test B postemergence
In short: as §2

[9] = tested on: wheat (Triticum aestivum); experiment: Test B postemergence
In short: as §2

[10] = tested on: barnyardgrass (Echinochloa crus-galli); experiment: Test B postemergence
In short: as §2

[11] = tested on: giant foxtail (Setaria faberii); experiment: Test B postemergence
In short: as §2

[12] = tested on: morning glory (Ipomoea hederacea); experiment: Test B postemergence
In short: as §2

corn (Zea mays) = experiment: Test B postemergence
In short: as §2

[13] = tested on: lambsquarters (Chenopodium album); experiment: Test B postemergence
In short: as §2

[14] = tested on: crabgrass (Digitaria sanguinalis); experiment: Test B postemergence
In short: as §2

[15] = tested on: pigweed (Amaranthus retroflexus); experiment: Test B postemergence
In short: as §2

[16] = tested on: cocklebur (Xanthium strumarium); experiment: Test B postemergence
In short: as §2

[17] = tested on: Surinam grass (Brachiaria decumbens); experiment: Test B postemergence
In short: as §2

[18] = tested on: velvetleaf (Abutilon theophrasti); experiment: Test B postemergence
In short: as §2

[19] = Rate 125 g/ha, scale 0 to 100, 0 no effect, 100 complete control
[20] = preemergence, Rate 62 g/ha, scale 0 to 100
[21] = preemergence, Rate 500 g/ha, visual evaluation after 12 to 14 days
[22] = preemergence, Rate 250 g/ha, scale 0 to 100, 0 no effect, 100 complete control
[23] = Rate 500 g/ha, scale 0 to 100, 0 is no effect, 100 is complete control, 13 to 15 days
[24] = preemergence, Rate 31 g/ha, scale 0 to 100
[25] = Rate 500 g/ha, scale 0 (no effect) to 100 (complete control), 13 to 15 days

`CCCC(C)c1ccn(C2OCN(c3cccc(OC(F)F)c3)C2=O)n1` (stereo not shown) [Compound 132] was tested, and the “Plant response rating, Bermudagrass” value [1, 19] was 100, the “Plant response rating, Bermudagrass” value [1, 20] was 100 and the “Plant response rating (0 to 100 where 0 is no effect and 100 is complete control), Bermudagrass” value [1, 21] was 100. The “Plant response rating, Bermudagrass” value [1, 22] was 100, the “Plant response rating, Kochia” value (kochia (Kochia scoparia); [19]) was 100 and the “Plant response rating (0 to 100), Kochia” value (kochia (Kochia scoparia); [21]) was 100. The “Plant response rating, Kochia” value (kochia (Kochia scoparia); [22]) was 100, the “Plant response rating, Sunflower” value (Sunflower [2]) was 20 and the “Plant response rating, Goosegrass” value [3, 19] was 100. The “Plant response rating, Goosegrass” value [3, 20] was 100, the “Plant response rating (0 to 100), Goosegrass” value [3, 21] was 100 and the “Plant response rating, Goosegrass” value [3, 22] was 100. The “Plant response rating, Crabgrass” value [4, 19] was 100, the “Plant response rating, Crabgrass” value [4, 20] was 100 and the “Plant response rating (0 to 100), Crabgrass” value [4, 21] was 100. The “Plant response rating, Crabgrass” value [4, 22] was 100, the “Plant response rating, Cocklebur” value [5, 19] was 0 and the “Plant response rating (0 to 100), Cocklebur” value [5, 21] was 0. For the same compound, the “Plant response rating, Cocklebur” value [5, 22] was 0, the “Plant response rating, Soybean” value (soybean (Glycine max); [19]) was 20 and the “Plant response rating, Soybean” value (soybean (Glycine max); [20]) was 20. For the same compound, the “Plant response rating (0 to 100), Soybean” value (soybean (Glycine max); [21]) was 30, the “Plant response rating, Soybean” value (soybean (Glycine max); [22]) was 20 and the “Plant response rating, Velvetleaf” value [6, 20] was 0. For the same compound, the “Plant response rating (0 to 100), Velvetleaf” value [6, 21] was 0, the “Plant response rating, Velvetleaf” value [6, 22] was 0 and the “Plant response rating, Sunflower” value (Sunflower [7]) was 20. For the same compound, the “Plant response rating, Blackgrass” value [8, 19] was 0, the “Plant response rating, Blackgrass” value [8, 23] was 0 and the “Plant response rating, Wild Oat” value (wild oat (Avena fatua); [19]) was 0. The “Plant response rating, Wheat” value [9, 19] was 0, the “Plant response rating, Barnyardgrass” value [10, 19] was 0 and the “Plant response rating, Barnyardgrass” value [10, 23] was 30. The “Plant response rating, Foxtail, Giant” value [11, 19] was 0, the “Plant response rating, Morningglory” value [12, 19] was 0 and the “Plant response rating, Corn” value (corn (Zea mays); [19]) was 0. For the same compound, the “Plant response rating, Corn” value (corn (Zea mays); [23]) was 0, the “Plant response rating, Lambsquarters” value [13, 19] was 70 and the “Plant response rating, Crabgrass” value [14, 19] was 0. The “Plant response rating, Pigweed” value [15, 19] was 0, the “Plant response rating, Cocklebur” value [16, 19] was 0 and the “Plant response rating, Cocklebur” value [16, 23] was 0. The “Plant response rating, Surinam grass” value [17, 19] was 0, the “Plant response rating, Surinam grass” value [17, 23] was 0 and the “Plant response rating, Velvetleaf” value [18, 19] was 0.

In the case of `Cc1cc(C)nc(N2CCC(n3ccc(C(C)(C)C)n3)C2=O)c1` (stereo not shown) [Compound 138], the “Plant response rating, Bermudagrass” value [1, 19] is reported as 70, the “Plant response rating, Bermudagrass” value [1, 24] is reported as 60 and the “Plant response rating, Bermudagrass” value [1, 20] is reported as 70. For the same compound, the “Plant response rating, Bermudagrass” value [1, 22] was 100, the “Plant response rating, Kochia” value (kochia (Kochia scoparia); [19]) was 100 and the “Plant response rating, Kochia” value (kochia (Kochia scoparia); [24]) was 60. The “Plant response rating, Kochia” value (kochia (Kochia scoparia); [20]) was 90, the “Plant response rating, Kochia” value (kochia (Kochia scoparia); [22]) was 100 and the “Plant response rating, Sunflower” value (Sunflower [2]) was 0. The “Plant response rating, Goosegrass” value [3, 19] was 90, the “Plant response rating, Goosegrass” value [3, 24] was 20 and the “Plant response rating, Goosegrass” value [3, 20] was 80. For the same compound, the “Plant response rating, Goosegrass” value [3, 22] was 100, the “Plant response rating, Crabgrass” value [4, 19] was 100 and the “Plant response rating, Crabgrass” value [4, 24] was 20. For the same compound, the “Plant response rating, Crabgrass” value [4, 20] was 70, the “Plant response rating, Crabgrass” value [4, 22] was 100 and the “Plant response rating, Cocklebur” value [5, 19] was 0. For the same compound, the “Plant response rating, Cocklebur” value [5, 24] was 0, the “Plant response rating, Cocklebur” value [5, 20] was 0 and the “Plant response rating, Cocklebur” value [5, 22] was 0. The “Plant response rating, Soybean” value (soybean (Glycine max); [19]) was 60, the “Plant response rating, Soybean” value (soybean (Glycine max); [20]) was 30 and the “Plant response rating, Soybean” value (soybean (Glycine max); [22]) was 100. The “Plant response rating, Velvetleaf” value [6, 19] was 0, the “Plant response rating, Velvetleaf” value [6, 24] was 0 and the “Plant response rating, Velvetleaf” value [6, 20] was 0. For the same compound, the “Plant response rating, Velvetleaf” value [6, 22] was 0, the “Plant response rating, Sunflower” value (Sunflower [7]) was 50 and the “Plant response rating, Blackgrass” value [8, 19] was 0. For the same compound, the “Plant response rating, Blackgrass” value [8, 25] was 0, the “Plant response rating, Wild Oat” value (wild oat (Avena fatua); [19]) was 0 and the “Plant response rating, Wild Oat” value (wild oat (Avena fatua); [25]) was 0. For the same compound, the “Plant response rating, Wheat” value [9, 19] was 0, the “Plant response rating, Wheat” value [9, 25] was 0 and the “Plant response rating, Barnyardgrass” value [10, 19] was 0. The “Plant response rating, Barnyardgrass” value [10, 25] was 0, the “Plant response rating, Foxtail, Giant” value [11, 19] was 0 and the “Plant response rating, Foxtail, Giant” value [11, 25] was 0. For the same compound, the “Plant response rating, Morningglory” value [12, 19] was 10, the “Plant response rating, Morningglory” value [12, 25] was 30 and the “Plant response rating, Corn” value (corn (Zea mays); [19]) was 0. The “Plant response rating, Corn” value (corn (Zea mays); [25]) was 0, the “Plant response rating, Lambsquarters” value [13, 19] was 0 and the “Plant response rating, Lambsquarters” value [13, 25] was 0. The “Plant response rating, Crabgrass” value [14, 19] was 0, the “Plant response rating, Crabgrass” value [14, 25] was 0 and the “Plant response rating, Pigweed” value [15, 19] was 0. For the same compound, the “Plant response rating, Pigweed” value [15, 25] was 30, the “Plant response rating, Cocklebur” value [16, 19] was 0 and the “Plant response rating, Cocklebur” value [16, 25] was 0. The “Plant response rating, Surinam grass” value [17, 19] was 0, the “Plant response rating, Surinam grass” value [17, 25] was 0 and the “Plant response rating, Velvetleaf” value [18, 19] was 0. The “Plant response rating, Velvetleaf” value [18, 25] was 0.
